Assay results as given in patent US20230339981A1, “KRAS G12D MODULATING COMPOUNDS” (priority 2022, published 2023).

Assays:
[1] = tested on: GP2D (KRAS G12D) cells; assay: 2D cell viability assay (CellTiter-Glo); format: cell-based; details: GP2d, 96 h, 4 days
Summary of the method: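 GP2D (KRAS G12D) cells, 1000/well in RPMI + 10% FBS, were plated onto compound (1:3 DMSO series) and grown 4 days at 37 °C, 5% CO2 in 2D. CellTiter-Glo luminescence was read; EC50 is the concentration giving 50% signal decrease, from sigmoidal fit.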

[2] = molecular target: GDP-loaded KRAS G12D (Homo sapiens (Human), UniProt P01116, G12D); assay: KRAS G12D (GDP) biochemical assay (TR-FRET probe displacement); format: binding; details: 2 hours
Chain of GDP-loaded KRAS G12D (P01116-2 other isoform, or with tags, fused parts or gaps G12D): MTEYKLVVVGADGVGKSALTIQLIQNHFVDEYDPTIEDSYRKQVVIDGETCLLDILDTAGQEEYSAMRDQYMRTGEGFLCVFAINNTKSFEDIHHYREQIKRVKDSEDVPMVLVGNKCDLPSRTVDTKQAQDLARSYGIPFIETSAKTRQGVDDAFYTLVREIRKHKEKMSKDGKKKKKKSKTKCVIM
Summary of the method: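 Compound pre-incubated 30 min with GDP-loaded KRAS G12D in 50 mM Hepes pH 7.4, 150 mM NaCl, 5 mM MgCl2, 0.005% Tween-20, then Eu-streptavidin and TR-FRET probe added. After 2 h at room temperature, TR-FRET ratio read; IC50 is 50% ratio decrease, sigmoidal fit.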

[3] = tested on: AsPC-1 (KRAS G12D) cells; assay: 3D cell viability assay (spheroids, CellTiter-Glo 3D); format: cell-based; details: Homo sapiens, ASPC1, 96 h, AsPC-1 cells, 3D spheroids, 4 days
Summary of the method: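 AsPC-1 cells (1000/well) in DMEM with 10% FBS formed spheroids over 3 days at 37 °C in ultra-low attachment plates, then were treated with 1:3 serial dilutions for 4 days. Viability read by CellTiter-Glo 3D luminescence; EC50 as concentration giving 50% signal decrease, sigmoidal fit.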

C#Cc1c(F)ccc2cccc(-c3nc4c5c(nc(OC[C@@]67CCCN6C[C@H](F)C7)nc5c3F)N3C[C@H]5CC[C@H](N5)[C@H]3CCO4)c12 [Example 124, (6aR,7S,10R)-2-(8-ethynyl-7-fluoronaphthalen-1-yl)-1-fluoro-13-(((2R,7aS)-2-fluorotetrahydro-1H-pyrrolizin-7a(5H)-yl)methoxy)-5,6,6a,7,8,9,10,11-octahydro-4-oxa-3,11a,12,14,15-pentaaza-7,10-methanocyclohepta[4,5]cycloocta[1,2,3-de]naphthalene]
EC50 [1]: 26 nM | IC50 [2]: 0.5 nM | EC50 [3]: 81 nM

C#Cc1c(F)ccc2cccc(-c3nc4c5c(nc(OC[C@@]67CCCN6[C@H](COC(C)(C)C)CC7)nc5c3F)N3C[C@H]5CC[C@H](N5)[C@H]3CC4)c12 [Example 119, (5aR,6S,9R)-12-(((3S,7aS)-3-(tert-butoxymethyl)tetrahydro-1H-pyrrolizin-7a(5H)-yl)methoxy)-2-(8-ethynyl-7-fluoronaphthalen-1-yl)-1-fluoro-4,5,5a,6,7,8,9,10-octahydro-3,10a,11,13,14-pentaaza-6,9-methanonaphtho[1,8-ab]heptalene]
EC50 [1]: 125 nM | IC50 [2]: 2.4 nM | EC50 [3]: 390 nM

C#Cc1c(F)ccc2cc(O)cc(-c3nc4c5c(nc(OCC6(CN7CCC(COC(C(F)(F)F)(C(F)(F)F)C(F)(F)F)CC7)CC6)nc5c3F)N3C[C@H]5CC[C@H](N5)[C@H]3CC4)c12 [Example 143, 5-ethynyl-6-fluoro-4-((5aR,6S,9R)-1-fluoro-12-((1-((4-(((1,1,1,3,3,3-hexafluoro-2-(trifluoromethyl)propan-2-yl)oxy)methyl)piperidin-1-yl)methyl)cyclopropyl)methoxy)-4,5,5a,6,7,8,9,10-octahydro-3,10a,11,13,14-pentaaza-6,9-methanonaphtho[1,8-ab]heptalen-2-yl)naphthalen-2-ol]
EC50 [1]: 3.1 nM | IC50 [2]: 1.9 nM | EC50 [3]: 110 nM
